Experimental data: ChEMBL document CHEMBL1909046, “DrugMatrix in vitro pharmacology data”
pIC50, pKi: −log10 of the molar value.

Legend:
[1] = DRUGMATRIX: Calcium Channel Type L, Dihydropyridine radioligand binding (ligand: [3H] Nitrendipine); format: cell membranes, Rattus norvegicus, Wistar, Cerebral cortex, Membrane; conditions: Not Active = under 50% inhibition at 10 µM; for pIC50: read-out: IC50; for pKi: read-out: Ki
[2] = target: Sigma non-opioid intracellular receptor 1 (Homo sapiens, UniProt Q99720); test: DRUGMATRIX: Sigma1 radioligand binding (ligand: [3H] Haloperidol); format: cell membranes, Jurkat, Membrane; conditions: Not Active = under 50% inhibition at 10 µM; for pIC50: read-out: IC50; for pKi: read-out: Ki
Sequence of Sigma non-opioid intracellular receptor 1 (Q99720 whole entry): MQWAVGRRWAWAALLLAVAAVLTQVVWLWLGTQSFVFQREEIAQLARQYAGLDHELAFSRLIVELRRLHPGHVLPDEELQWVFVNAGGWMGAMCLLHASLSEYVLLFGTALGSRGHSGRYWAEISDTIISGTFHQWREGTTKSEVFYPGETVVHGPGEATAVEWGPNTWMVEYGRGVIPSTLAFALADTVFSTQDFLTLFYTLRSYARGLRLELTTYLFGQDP

[3] = target: Prostaglandin G/H synthase 1 (Homo sapiens, UniProt P23219); test: biochemical; format: tissue-based, Platelet; conditions: platelet;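 further: inhibition of COX-1 enzyme activity, with arachidonic acid supplied as substrate; in other assays of this panel Not Active means under 50% inhibition at 10 µM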
Sequence of Prostaglandin G/H synthase 1 (P23219 whole entry): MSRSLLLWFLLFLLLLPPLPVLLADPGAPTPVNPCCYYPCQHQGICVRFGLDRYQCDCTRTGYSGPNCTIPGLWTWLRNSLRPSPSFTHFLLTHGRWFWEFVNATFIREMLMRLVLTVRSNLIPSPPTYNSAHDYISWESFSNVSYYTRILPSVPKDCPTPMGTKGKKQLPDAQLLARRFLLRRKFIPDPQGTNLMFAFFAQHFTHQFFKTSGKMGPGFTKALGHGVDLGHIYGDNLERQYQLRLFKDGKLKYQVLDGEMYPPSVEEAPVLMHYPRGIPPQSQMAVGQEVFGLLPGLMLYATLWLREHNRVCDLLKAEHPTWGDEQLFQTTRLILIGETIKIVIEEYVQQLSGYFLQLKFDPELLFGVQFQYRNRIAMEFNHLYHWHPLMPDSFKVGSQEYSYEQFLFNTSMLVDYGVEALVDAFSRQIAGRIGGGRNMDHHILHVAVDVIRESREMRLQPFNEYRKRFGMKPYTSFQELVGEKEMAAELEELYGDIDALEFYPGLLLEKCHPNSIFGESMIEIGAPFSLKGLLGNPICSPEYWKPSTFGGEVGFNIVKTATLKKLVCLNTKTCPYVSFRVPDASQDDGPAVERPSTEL

Glycine receptor = Glycine receptor (Rattus norvegicus, UniProt P22771+P24524+P07727+P20781); format: cell membranes, Wistar, Spinal cord, Membrane; further: in other assays of this panel Not Active means under 50% inhibition at 10 µM
[4] = DRUGMATRIX: Nicotinic Acetylcholine radioligand binding (ligand: [125I] Epibatidine); format: cell membranes, Membrane; conditions: imr-32; Not Active = under 50% inhibition at 10 µM
[5] = target: cGMP-specific 3',5'-cyclic phosphodiesterase (Homo sapiens, UniProt O76074); test: DRUGMATRIX: Phosphodiesterase PDE5 enzyme inhibition (substrate: [3H]cGMP + cGMP); format: tissue-based; conditions: platelet; Not Active = under 50% inhibition at 10 µM
Cytochrome P450 2D6 = Cytochrome P450 2D6 (Homo sapiens, UniProt P10635); conditions: bti-tn-5b1-4; further: in other assays of this panel Not Active means under 50% inhibition at 10 µM
Sequence of Cytochrome P450 2D6 (P10635 whole entry): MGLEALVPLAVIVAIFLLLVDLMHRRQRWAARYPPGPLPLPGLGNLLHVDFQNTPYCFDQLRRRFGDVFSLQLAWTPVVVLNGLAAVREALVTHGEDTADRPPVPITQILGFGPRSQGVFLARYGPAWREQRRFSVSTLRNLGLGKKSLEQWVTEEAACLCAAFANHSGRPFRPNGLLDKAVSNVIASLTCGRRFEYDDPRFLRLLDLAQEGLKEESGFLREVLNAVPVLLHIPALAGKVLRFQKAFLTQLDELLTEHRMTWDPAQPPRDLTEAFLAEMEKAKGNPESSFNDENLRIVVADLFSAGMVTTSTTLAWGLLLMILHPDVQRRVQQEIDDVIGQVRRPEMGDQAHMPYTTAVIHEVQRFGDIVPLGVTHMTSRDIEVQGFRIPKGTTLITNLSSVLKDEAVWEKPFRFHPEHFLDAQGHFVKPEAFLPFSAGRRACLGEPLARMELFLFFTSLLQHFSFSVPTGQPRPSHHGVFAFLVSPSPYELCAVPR

Compound	IC50 [1]	Ki [1]	IC50 ([2]; jurkat)	Ki ([2]; jurkat)	IC50 [3]	Ki [3]	IC50 (Glycine receptor)	Ki (Glycine receptor)	IC50 [4]	Ki [4]	IC50 [5]	Ki [5]	IC50 (Cytochrome P450 2D6)	Ki (Cytochrome P450 2D6)	pIC50 [2]	pKi [2]	pIC50 [1]	pKi [1]
CADMIUM DICHLORIDE	Not Active	Not Active	Not Active	Not Active	Not Active	Not Active	Not Active	Not Active	Not Active	Not Active	Not Active	Not Active	Not Active	Not Active				
CCCN(CCC)C(=O)C(CCC(=O)O)NC(=O)c1ccccc1 (stereo unspecified) [PROGLUMIDE]	Not Active	Not Active	Not Active		Not Active		Not Active		Not Active	Not Active	Not Active		Not Active	Not Active				
O=C(N[C@H](CO)[C@H](O)c1ccc([N+](=O)[O-])cc1)C(Cl)Cl [CHLORAMPHENICOL]	Not Active	Not Active	Not Active		Not Active		Not Active		Not Active	Not Active	Not Active							
CCCCOc1ccc(OCCCN2CCOCC2)cc1 [PRAMOXINE]	Not Active	Not Active			Not Active		Not Active		Not Active	Not Active	Not Active		Not Active	Not Active	6.92	7.29		
CC(C)(C(=O)c1cccnc1)c1cccnc1 [METYRAPONE]	Not Active	Not Active	Not Active		Not Active		Not Active		Not Active	Not Active	Not Active		Not Active	Not Active				
CC(=O)Nc1cccc(O)c1 [METACETAMOL]	Not Active	Not Active	Not Active		Not Active		Not Active		Not Active	Not Active	Not Active		Not Active	Not Active				
NC(=O)c1cnccn1 [PYRAZINAMIDE]	Not Active	Not Active	Not Active		Not Active		Not Active		Not Active	Not Active	Not Active		Not Active	Not Active				
CC[C@@H](CO)NCCN[C@@H](CC)CO [ETHAMBUTOL]	Not Active	Not Active	Not Active		Not Active		Not Active		Not Active	Not Active	Not Active		Not Active	Not Active				
CC(C)(Oc1ccc(C2CCCc3ccccc32)cc1)C(=O)O (stereo unspecified) [NAFENOPIN]	Not Active	Not Active	Not Active		Not Active		Not Active		Not Active	Not Active	Not Active		Not Active	Not Active				
C[C@@H]1C[C@@H]([C@H](O)CC2CC(=O)NC(=O)C2)C(=O)[C@@H](C)C1 [CYCLOHEXIMIDE]	Not Active	Not Active	Not Active		Not Active		Not Active		Not Active	Not Active	Not Active							
CCn1cc(C(=O)O)c(=O)c2cc(F)c(N3CCN(C)CC3)cc21 [PEFLOXACIN]	Not Active	Not Active	Not Active		Not Active		Not Active		Not Active	Not Active	Not Active							
CCN(CC)CCOC(=O)c1ccc(N)cc1 [PROCAINE]	Not Active	Not Active	Not Active		Not Active		Not Active		Not Active	Not Active	Not Active		Not Active	Not Active				
COc1ccc2cc([C@H](C)C(=O)O)ccc2c1 [NAPROXEN]	Not Active	Not Active	Not Active				Not Active		Not Active	Not Active								
CC(C(=O)O)c1cccc(C(=O)c2ccccc2)c1 (stereo unspecified) [KETOPROFEN]	Not Active	Not Active	Not Active				Not Active		Not Active	Not Active	Not Active		Not Active	Not Active				
NC(=O)NO [HYDROXYUREA]	Not Active	Not Active	Not Active		Not Active		Not Active		Not Active	Not Active	Not Active							
O=NN(CCCl)C(=O)NCCCl [CARMUSTINE]	Not Active	Not Active	Not Active		Not Active		Not Active		Not Active	Not Active	Not Active							

Compound	IC50 [1]	Ki [1]	IC50 ([2]; jurkat)	Ki ([2]; jurkat)	IC50 [3]	Ki [3]	IC50 (Glycine receptor)	Ki (Glycine receptor)	IC50 [4]	Ki [4]	IC50 [5]	Ki [5]	IC50 (Cytochrome P450 2D6)	Ki (Cytochrome P450 2D6)	pIC50 [2]	pKi [2]	pIC50 [1]	pKi [1]
O=C1CC2(CCCC2)CC(=O)N1CCCCN1CCN(c2ncccn2)CC1 [BUSPIRONE]	Not Active	Not Active			Not Active		Not Active		Not Active	Not Active	Not Active		Not Active	Not Active				
COc1ccc2c(c1)c(CC(=O)O)c(C)n2C(=O)c1ccc(Cl)cc1 [INDOMETHACIN]	Not Active	Not Active	Not Active				Not Active		Not Active	Not Active	Not Active		Not Active	Not Active				
CC1=C(C(=O)O)N2C(=O)[C@@H](NC(=O)[C@H](N)c3ccccc3)[C@H]2SC1 [CEPHALEXIN ANHYDROUS]	Not Active	Not Active	Not Active		Not Active		Not Active		Not Active	Not Active	Not Active							
COC(=O)C1=C(C)NC(C)=C(C(=O)OCC(C)C)C1c1ccccc1[N+](=O)[O-] (stereo unspecified) [NISOLDIPINE]			Not Active		Not Active		Not Active		Not Active	Not Active	Not Active						9.13	9.32
N=C(Nc1ccccc1)Nc1ccccc1	Not Active	Not Active			Not Active		Not Active		Not Active	Not Active	Not Active							
CCN1CC(CCN2CCOCC2)C(c2ccccc2)(c2ccccc2)C1=O (stereo unspecified) [DOXAPRAM]	Not Active	Not Active	Not Active		Not Active		Not Active		Not Active	Not Active	Not Active							
OC(CCN1CCCCC1)(c1ccccc1)C1CCCCC1 (stereo unspecified) [TRIHEXYPHENIDYL]	Not Active	Not Active			Not Active		Not Active		Not Active	Not Active	Not Active				6.97	7.35		
O=C(C1CCCCC1)N1CC(=O)N2CCc3ccccc3C2C1 (stereo unspecified) [PRAZIQUANTEL]	Not Active	Not Active			Not Active		Not Active		Not Active	Not Active	Not Active		Not Active	Not Active				
Nc1c(CC(=O)O)cccc1C(=O)c1ccc(Br)cc1 [BROMFENAC]	Not Active	Not Active	Not Active				Not Active		Not Active	Not Active	Not Active		Not Active	Not Active				
CN(C)c1ccc(C(=C2C=CC(=[N+](C)C)C=C2)c2ccc(N(C)C)cc2)cc1.[Cl-] [GENTIAN VIOLET]			Not Active		Not Active		Not Active		Not Active	Not Active	Not Active						5.67	5.86
O=C(O)Cc1ccccc1Nc1c(Cl)cccc1Cl [DICLOFENAC]	Not Active	Not Active	Not Active				Not Active		Not Active	Not Active	Not Active		Not Active	Not Active				
CCOC(=O)C(C)(C)Oc1ccc(Cl)cc1 [CLOFIBRATE]	Not Active	Not Active	Not Active		Not Active		Not Active		Not Active	Not Active	Not Active							
C/C=C/C[C@@H](C)[C@@H](O)[C@H]1C(=O)N[C@@H](CC)C(=O)N(C)CC(=O)N(C)[C@@H](CC(C)C)C(=O)N[C@@H](C(C)C)C(=O)N(C)[C@@H](CC(C)C)C(=O)N[C@@H](C)C(=O)N[C@H](C)C(=O)N(C)[C@@H](CC(C)C)C(=O)N(C)[C@@H](CC(C)C)C(=O)N(C)[C@@H](C(C)C)C(=O)N1C [CYCLOSPORINE]	Not Active	Not Active	Not Active		Not Active		Not Active		Not Active	Not Active	Not Active							
CC(C)Cc1ccc(C(C)C(=O)O)cc1 (stereo unspecified) [IBUPROFEN]	Not Active	Not Active	Not Active				Not Active		Not Active	Not Active	Not Active		Not Active	Not Active				
CCCCN1CCCCC1C(=O)Nc1c(C)cccc1C.Cl (stereo unspecified) [BUPIVACAINE HYDROCHLORIDE]	Not Active	Not Active	Not Active		Not Active		Not Active		Not Active	Not Active	Not Active							
